Estimated protein-binding ratio and zeta potential data for four compounds are collected here from patent publication US12076694B2, “Method of removing protein-bound substances by electrically conductive polymer” (Ming Chi University of Technology, priority 2019, dated 2024).

The target of one series is BSA (Bos taurus, UniProt P02769). Nature of the series: Protein binding ratio by centrifugal ultrafiltration (30-kDa cutoff). The settings on record: 50 ppm toxin, BSA 4-40 g L^−1 in PBS buffer.
BSA, sequence (P02769 25-607): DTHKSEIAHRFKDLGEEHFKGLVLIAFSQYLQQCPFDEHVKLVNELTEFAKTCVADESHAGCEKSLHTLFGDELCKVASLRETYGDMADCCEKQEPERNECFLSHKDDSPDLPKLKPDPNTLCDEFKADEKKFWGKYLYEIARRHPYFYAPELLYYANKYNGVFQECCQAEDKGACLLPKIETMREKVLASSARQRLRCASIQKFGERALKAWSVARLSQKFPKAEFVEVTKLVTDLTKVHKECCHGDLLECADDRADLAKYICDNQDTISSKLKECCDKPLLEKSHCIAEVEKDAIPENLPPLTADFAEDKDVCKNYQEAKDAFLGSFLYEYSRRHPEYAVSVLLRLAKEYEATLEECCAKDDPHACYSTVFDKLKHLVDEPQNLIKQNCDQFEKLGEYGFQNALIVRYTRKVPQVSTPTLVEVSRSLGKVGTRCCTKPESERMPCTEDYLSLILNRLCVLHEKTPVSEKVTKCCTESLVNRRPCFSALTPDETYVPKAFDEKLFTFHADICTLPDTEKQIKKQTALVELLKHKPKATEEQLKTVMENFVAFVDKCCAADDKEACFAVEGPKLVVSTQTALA
The conditions of series [1]: comparison value for the anticoagulant; cited from earlier work.

Protocol for BSA: For the dialysis experiment of PBUT pre-bonded BSA solution, 50 ppm of targeted uremic toxins were mixed with various amount of BSA (4, 20, and 40 g L^−1) and shaken for 24 h at 37° C. Collected samples (1 mL) were purified through centrifugation (12,000×g, 25° C., 5 min) using a Vivaspin centrifuge (Vivaspin 2, 30 kDa cutoff, GE Healthcare); the PBUTs were separated into the bottom device, thereby collecting BSA proteins from the top device.
Because 4 g L^−1 BSA is closer to the normal content in mimic blood (1.5 g urea, 0.04 g L^−1 lysozyme, and 1 g L^−1 BSA), the BSA solution having the concentration of 4 g L^−1 was selected for the subsequent dialysis experiments.

In the case of `CN1CC(=O)NC1=N` [CRT, creatinine], at BSA, the estimated protein-binding ratio is reported as 1.0-2.1%. The same measure, in the same setting: next, `O=C(O)CNC(=O)c1ccccc1` [HA, hippuric acid]: 18.3-36.9%. In the case of `Cc1ccc(O)cc1` [PC, p-cresol], the estimated protein-binding ratio on BSA is 89.4-94.4%. As to heparin, the zeta potential in series [1] was −39 mV.
